Where a name gives a salt, the structure may show the parent alone.
Tests used:
recombinant human FAP = biological target: T1, recombinant human FAP (Homo sapiens, UniProt Q12884); assay: FAP assay kit (BPS Bioscience), inhibition of enzymatic activity, Gly-Pro-AMC fluorogenic substrate; format: biochemical; conditions: for IC50: recombinant human FAP, 30 min, 22° C
T1 construct: purchased BPS Bioscience
T1 sequence (Q12884 1-760): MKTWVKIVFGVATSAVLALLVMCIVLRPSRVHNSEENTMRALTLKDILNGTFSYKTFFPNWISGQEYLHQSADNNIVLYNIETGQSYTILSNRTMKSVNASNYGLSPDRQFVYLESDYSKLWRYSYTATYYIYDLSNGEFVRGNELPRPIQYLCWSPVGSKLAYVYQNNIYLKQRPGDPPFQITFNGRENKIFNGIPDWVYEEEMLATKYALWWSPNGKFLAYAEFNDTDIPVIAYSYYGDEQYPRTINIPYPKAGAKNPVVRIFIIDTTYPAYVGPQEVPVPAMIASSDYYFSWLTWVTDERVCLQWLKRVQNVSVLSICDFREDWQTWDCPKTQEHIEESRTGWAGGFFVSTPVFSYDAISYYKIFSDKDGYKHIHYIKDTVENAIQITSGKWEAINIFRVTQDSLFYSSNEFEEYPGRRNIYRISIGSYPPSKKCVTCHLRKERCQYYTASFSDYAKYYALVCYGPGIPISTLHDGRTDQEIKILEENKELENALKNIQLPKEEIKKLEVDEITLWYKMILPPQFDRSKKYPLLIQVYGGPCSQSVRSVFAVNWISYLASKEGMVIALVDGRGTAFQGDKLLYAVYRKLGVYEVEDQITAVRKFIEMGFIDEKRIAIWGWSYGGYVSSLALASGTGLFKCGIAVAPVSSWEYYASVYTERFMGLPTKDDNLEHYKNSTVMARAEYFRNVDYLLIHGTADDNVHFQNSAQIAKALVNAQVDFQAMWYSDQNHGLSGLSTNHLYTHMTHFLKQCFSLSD
Method: (§1) The assay uses the fluorogenic substrate Gly-Pro-Aminomethylcoumarin (AMC) to measure either FAP or DPP-IV activity.
(§2) The enzyme activities were assayed in a total volume of 100 uL for 10 min (DPP-IV) and 30 min (FAP) at 22° C. The inhibitors were dissolved in DMSO. IC50 values were computed using GraphPad Prism 4.

[1] = Biodistribution of 99mTc-Compound 2 in naive rats; set-up: species or system Male Sprague-Dawley rats; conditions: rat
Method: Male Sprague-Dawley rats (231±10 g) were group housed in batches of four, with ad libitum access to food and water. […] At various times post injection (2, 30, 60 and 120 minutes) animals were euthanised (n=3 per timepoint), dissected.
Data above are presented as % injected dose (mean±SD; n=3 animals per timepoint).

[2] = Metabolism study of Compound 2 in naive rats (plasma, HPLC); format: in vivo, male rats
Method: The in vivo metabolic profile of Compound 2 was determined after intravenous administration to male rats. Post mortem blood was obtained at 60 minutes post injection and centrifuged to separate plasma.
Analysis was carried out by HPLC with prior extraction of Compound 2 from plasma using solid phase extraction (HLB cartridges; Waters). Briefly, cartridges were conditioned with 5 ml, acetonitrile, followed by 2×5 mL water. Plasma was loaded onto the cartridge and then washed with water (2% acetonitrile). Compound 2 was eluted from the cartridge with 7.5 mL water (0.1% TFA) with acetonitrile (0.1% TFA) as a 50:50 ratio.
The extract was evaporated to dryness and reconstituted in 2 mL starting mobile phase (4% acetonitrile (0.1% TFA) and water (0.1% TFA).
0.5 mL of the reconstituted extract anlaysed by HPLC using the same analytical conditions as mentioned above in Example 3 for Compound 2.

recombinant human DPP-IV = biological target: T2, recombinant human DPP-IV (Homo sapiens, UniProt P27487); assay: DPP-IV assay kit (BPS Bioscience), inhibition of enzymatic activity, Gly-Pro-AMC fluorogenic substrate; format: biochemical; conditions: 10 min, 22° C
T2 construct: purchased BPS Bioscience
T2 sequence (P27487 whole entry): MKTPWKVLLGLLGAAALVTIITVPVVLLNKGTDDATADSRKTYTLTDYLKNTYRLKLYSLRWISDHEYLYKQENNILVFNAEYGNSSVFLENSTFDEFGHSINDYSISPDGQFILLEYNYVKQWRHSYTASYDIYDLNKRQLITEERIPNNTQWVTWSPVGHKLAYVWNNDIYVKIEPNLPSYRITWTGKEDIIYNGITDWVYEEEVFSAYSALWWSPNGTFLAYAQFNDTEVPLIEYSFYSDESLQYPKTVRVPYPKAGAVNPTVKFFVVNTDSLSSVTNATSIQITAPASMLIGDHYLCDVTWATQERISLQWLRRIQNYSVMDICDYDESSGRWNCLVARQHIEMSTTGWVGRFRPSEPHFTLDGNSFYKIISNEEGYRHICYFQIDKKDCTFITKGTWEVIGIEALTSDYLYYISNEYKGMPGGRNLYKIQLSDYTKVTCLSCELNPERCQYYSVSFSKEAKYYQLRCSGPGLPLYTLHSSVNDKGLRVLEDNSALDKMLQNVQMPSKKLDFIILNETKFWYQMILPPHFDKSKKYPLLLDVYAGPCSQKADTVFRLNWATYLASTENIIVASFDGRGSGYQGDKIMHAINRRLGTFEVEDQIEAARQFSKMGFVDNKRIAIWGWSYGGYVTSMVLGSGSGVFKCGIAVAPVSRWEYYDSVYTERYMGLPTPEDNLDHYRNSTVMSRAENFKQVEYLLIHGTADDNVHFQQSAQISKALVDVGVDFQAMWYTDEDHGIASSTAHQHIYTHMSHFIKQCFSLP
Method: as §1, §2

Row | Compound | IC50 (recombinant human FAP) [µM] | IC50 (recombinant human DPP-IV) [µM] | other results
1 | N#Cc1ccc(NCCNCC(=O)N2CCCC2C#N)nc1 (centres unmarked) [DPP-IV reference, NVP DPP 728 hydrochloride, reference compound] | > 100 | – | –
2 | NCCNCC(CNCCN)CC(=O)NCCCCCC(=O)NCC(=O)N1CCC[C@H]1B(O)O [Compound 2, (R) (1-(2-(6-(4-((2-aminoethyl)amino)-3-(((2-aminoethyl)amino)methyl)butanamido)hexanamido)acetyl)pyrrolidin-2-yl)boronic acid] | – | – | biodistribution for in vivo imaging purposes (in words) [1]: good biodistribution; Compound 2 still present in the plasma sample ([2]; male rats, intravenous, plasma 60 minutes after injection): Approximately 80%; in vivo metabolic profile (in words) ([2]; rat, in vivo): good in vivo metabolic profile
3 | (R)-(1-(2-(6-(4-((2-aminoethyl)amino)-3-(((2-aminoethyl)amino)methyl)butanamido)hexanamido)acetyl)pyrrolidin-2-yl)boronic acid, dioxorhenium(V)salt [Compound 1] | 0.009 | > 50 | affinity for FAP (in words) (recombinant human FAP; in vitro assay): high and selective affinity for FAP
4 | O=C(NCC(=O)N1CCC[C@H]1B(O)O)c1cccc2ccccc12 [FAP reference, (R)-(1-(2-(1-naphthamido)acetyl)pyrrolidin-2-yl)boronic acid, reference compound] | – | > 50 | –
